Data published in patent US20230073777A1, “CYCLIC-AMP RESPONSE ELEMENT BINDING PROTEIN (CBP) AND/OR ADENOVIRAL E1A BINDING PROTEIN OF 300 KDA (P300) DEGRADATION COMPOUNDS AND METHODS OF USE” (CULLGEN (SHANGHAI), INC., priority 2019, published 2023).
pIC50: −log10 of the molar value.

How the values were obtained:
[1] = test system: MM.1R; assay: Cell viability assay, MM.1R; assay type: cell-based; conditions: Multiple Myeloma
Method: (§1) Cells were seeded at a density of 5000 cells per well in 96-well assay plates and treated with test compounds following a 12-point 3-fold serial dilution. Three days later, cell viability was determined using the CellTiter-Glo assay kit according to the manufacturer's instructions. The dose-response curves were determined and IC50 values were calculated using the GraphPad Prism software following a nonlinear regression (least squares fit) method.
(§2) The IC50 value of each compound was determined as described in FIG. 4 and calculated using the GraphPad Prism 5.0 software.

[2] = test system: NCI-H929; assay: Cell viability assay, NCI-H929; assay type: cell-based; conditions: Homo sapiens, NCI-H929, Multiple Myeloma
Method: as §1, §2

[3] = test system: NCI-H520; assay: Cell viability assay, NCI-H520; assay type: cell-based; conditions: Homo sapiens, NCI-H520, Non-small cell lung cancer
Method: as §1, §2

[4] = test system: Karpas-422; assay: Cell viability assay, Karpas-422; assay type: cell-based; conditions: Homo sapiens, Karpas-422, Diffuse large B-cell lymphoma
Method: as §1, §2

[5] = test system: SK-BR-3; assay: Cell viability assay, SK-BR-3; assay type: cell-based; conditions: Homo sapiens, SK-BR-3, breast carcinoma
Method: as §1, §2

[6] = test system: MOLM-13; assay: Cell viability assay, MOLM-13; assay type: cell-based; conditions: Homo sapiens, MOLM-13, Acute monocytic leukemia
Method: as §1, §2

[7] = biological target: T1, P300 (Homo sapiens, UniProt Q09472); assay: Immunoblotting of P300 protein levels in LNCaP or 22RV1 cells; assay type: cell-based; set-up: LNCaP or 22RV1 cells that express CBP/P300 proteins were treated with GNE-781 or the bivalent compounds; endogenous in cells; host or cells: LNCaP (clone FGC) or 22RV1 cells; conditions: for inhibition at 0.01 µM: percentage of inhibition of p300 at 10 nM (Table 2), read-out: Degradation (10 nM)
Outline: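 P300/CBP levels quantified by chemiluminescent immunoblot band densitometry, normalized against tubulin or vinculin loading controls. Lysates came from LNCaP or 22RV1 cells exposed to compounds or DMSO vehicle for indicated times.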

[8] = test system: MCF-7; assay: Cell viability assay, MCF-7; assay type: cell-based; conditions: Homo sapiens, MCF7, MCF-7, breast carcinoma
Method: as §1, §2

[9] = test system: WSU-DLCL2; assay: Cell viability assay, WSU-DLCL2; assay type: cell-based; conditions: Homo sapiens, WSUDLCL2, WSU-DLCL2, Diffuse large B-cell lymphoma
Method: as §1, §2

[10] = test system: Pfeiffer; assay: Cell viability assay, Pfeiffer; assay type: cell-based; conditions: Homo sapiens, Diffuse large B-cell lymphoma
Method: as §1, §2

[11] = test system: RPMI-8226; assay: Cell viability assay, RPMI-8226; assay type: cell-based; conditions: Homo sapiens, RPMI-8226, Multiple myeloma
Method: as §1, §2

[12] = test system: MEG-01; assay: Cell viability assay, MEG-01; assay type: cell-based; conditions: Homo sapiens, MEG-01, Chronic myeloid leukemia
Method: as §1, §2

[13] = test system: MM.1S; assay: Cell viability assay, MM.1S; assay type: cell-based; conditions: Homo sapiens, MM1.S, Multiple Myeloma
Method: as §1, §2

[14] = test system: AMO-1; assay: Cell viability assay, AMO-1; assay type: cell-based; conditions: Homo sapiens, AMO1, AMO-1, Multiple Myeloma
Method: as §1, §2

[15] = test system: L-363; assay: Cell viability assay, L-363; assay type: cell-based; conditions: Homo sapiens, L-363, Multiple myeloma
Method: as §1, §2

[16] = biological target: T1, P300; assay: Pharmacodynamic study, P300 in 22RV1 subcutaneous xenograft tumors; assay type: in vivo, Athymic nude mice; set-up: from tissue; host or cells: 22RV1 subcutaneous xenograft tumours in athymic nude mice; conditions: single dose 40 mg/kg, i.p. or p.o., six hours after administration (FIG. 9)
Method: In addition to cultured cells, athymic nude mice bearing 22RV1 subcutaneous xenograft tumors at the right flank were intraperitoneally or orally treated with 40 mg/kg bivalent compounds. Six hours after drug administration, animals were sacrificed for immunoblotting of P300 and CBP in homogenized xenograft tumor masses. […] Moreover, ICR mice were orally treated with 40 mg/kg bivalent compounds. Six hours after drug administration, animals were sacrificed for immunoblotting of CBP in homogenized lung tissues.
Athymic nude mice bearing 22RV1 subcutaneous xenograft tumors at the right flank were intraperitoneally or orally treated with selected bivalent compounds at 40 mg/kg. Six hours after drug administration, animals were sacrificed, and xenograft tumors were collected for immunoblotting of P300 and CBP.
All animal experiments were performed under protocols approved by the Institutional Animal Care and Use Committee (IACUC) of Cullgen. Athymic nude mice (male, 5-weeks old) received 5 million 22RV1 cells subcutaneously inoculated at the right flank site. Twenty days following inoculation, tumors were approximately 500 mm^3 in size. Tumor-bearing mice were treated intraperitoneally or via oral gavage with vehicle or bivalent compounds at indicated doses. 6 hours after drug administration, animals were sacrificed, tumors were resected. Small chunks of tumors were homogenized for immunoblotting of P300/CBP and other proteins as indicated. Alternatively, ICR mice (male, 5-weeks old) were treated via oral gavage with vehicle or bivalent compounds at indicated doses. 6 hours after drug administration, animals were sacrificed, lung tissues were resected. Small chunks of lung tissues were homogenized for immunoblotting of CBP and other proteins as indicated.

[17] = test system: LK-2; assay: Cell viability assay, LK-2; assay type: cell-based; conditions: Homo sapiens, LK-2, Non-small cell lung cancer
Method: as §1, §2

[18] = test system: HEL; assay: Cell viability assay, HEL; assay type: cell-based; conditions: Homo sapiens, Erythroleukemia
Method: as §1, §2

T1 sequence (Q09472 whole entry): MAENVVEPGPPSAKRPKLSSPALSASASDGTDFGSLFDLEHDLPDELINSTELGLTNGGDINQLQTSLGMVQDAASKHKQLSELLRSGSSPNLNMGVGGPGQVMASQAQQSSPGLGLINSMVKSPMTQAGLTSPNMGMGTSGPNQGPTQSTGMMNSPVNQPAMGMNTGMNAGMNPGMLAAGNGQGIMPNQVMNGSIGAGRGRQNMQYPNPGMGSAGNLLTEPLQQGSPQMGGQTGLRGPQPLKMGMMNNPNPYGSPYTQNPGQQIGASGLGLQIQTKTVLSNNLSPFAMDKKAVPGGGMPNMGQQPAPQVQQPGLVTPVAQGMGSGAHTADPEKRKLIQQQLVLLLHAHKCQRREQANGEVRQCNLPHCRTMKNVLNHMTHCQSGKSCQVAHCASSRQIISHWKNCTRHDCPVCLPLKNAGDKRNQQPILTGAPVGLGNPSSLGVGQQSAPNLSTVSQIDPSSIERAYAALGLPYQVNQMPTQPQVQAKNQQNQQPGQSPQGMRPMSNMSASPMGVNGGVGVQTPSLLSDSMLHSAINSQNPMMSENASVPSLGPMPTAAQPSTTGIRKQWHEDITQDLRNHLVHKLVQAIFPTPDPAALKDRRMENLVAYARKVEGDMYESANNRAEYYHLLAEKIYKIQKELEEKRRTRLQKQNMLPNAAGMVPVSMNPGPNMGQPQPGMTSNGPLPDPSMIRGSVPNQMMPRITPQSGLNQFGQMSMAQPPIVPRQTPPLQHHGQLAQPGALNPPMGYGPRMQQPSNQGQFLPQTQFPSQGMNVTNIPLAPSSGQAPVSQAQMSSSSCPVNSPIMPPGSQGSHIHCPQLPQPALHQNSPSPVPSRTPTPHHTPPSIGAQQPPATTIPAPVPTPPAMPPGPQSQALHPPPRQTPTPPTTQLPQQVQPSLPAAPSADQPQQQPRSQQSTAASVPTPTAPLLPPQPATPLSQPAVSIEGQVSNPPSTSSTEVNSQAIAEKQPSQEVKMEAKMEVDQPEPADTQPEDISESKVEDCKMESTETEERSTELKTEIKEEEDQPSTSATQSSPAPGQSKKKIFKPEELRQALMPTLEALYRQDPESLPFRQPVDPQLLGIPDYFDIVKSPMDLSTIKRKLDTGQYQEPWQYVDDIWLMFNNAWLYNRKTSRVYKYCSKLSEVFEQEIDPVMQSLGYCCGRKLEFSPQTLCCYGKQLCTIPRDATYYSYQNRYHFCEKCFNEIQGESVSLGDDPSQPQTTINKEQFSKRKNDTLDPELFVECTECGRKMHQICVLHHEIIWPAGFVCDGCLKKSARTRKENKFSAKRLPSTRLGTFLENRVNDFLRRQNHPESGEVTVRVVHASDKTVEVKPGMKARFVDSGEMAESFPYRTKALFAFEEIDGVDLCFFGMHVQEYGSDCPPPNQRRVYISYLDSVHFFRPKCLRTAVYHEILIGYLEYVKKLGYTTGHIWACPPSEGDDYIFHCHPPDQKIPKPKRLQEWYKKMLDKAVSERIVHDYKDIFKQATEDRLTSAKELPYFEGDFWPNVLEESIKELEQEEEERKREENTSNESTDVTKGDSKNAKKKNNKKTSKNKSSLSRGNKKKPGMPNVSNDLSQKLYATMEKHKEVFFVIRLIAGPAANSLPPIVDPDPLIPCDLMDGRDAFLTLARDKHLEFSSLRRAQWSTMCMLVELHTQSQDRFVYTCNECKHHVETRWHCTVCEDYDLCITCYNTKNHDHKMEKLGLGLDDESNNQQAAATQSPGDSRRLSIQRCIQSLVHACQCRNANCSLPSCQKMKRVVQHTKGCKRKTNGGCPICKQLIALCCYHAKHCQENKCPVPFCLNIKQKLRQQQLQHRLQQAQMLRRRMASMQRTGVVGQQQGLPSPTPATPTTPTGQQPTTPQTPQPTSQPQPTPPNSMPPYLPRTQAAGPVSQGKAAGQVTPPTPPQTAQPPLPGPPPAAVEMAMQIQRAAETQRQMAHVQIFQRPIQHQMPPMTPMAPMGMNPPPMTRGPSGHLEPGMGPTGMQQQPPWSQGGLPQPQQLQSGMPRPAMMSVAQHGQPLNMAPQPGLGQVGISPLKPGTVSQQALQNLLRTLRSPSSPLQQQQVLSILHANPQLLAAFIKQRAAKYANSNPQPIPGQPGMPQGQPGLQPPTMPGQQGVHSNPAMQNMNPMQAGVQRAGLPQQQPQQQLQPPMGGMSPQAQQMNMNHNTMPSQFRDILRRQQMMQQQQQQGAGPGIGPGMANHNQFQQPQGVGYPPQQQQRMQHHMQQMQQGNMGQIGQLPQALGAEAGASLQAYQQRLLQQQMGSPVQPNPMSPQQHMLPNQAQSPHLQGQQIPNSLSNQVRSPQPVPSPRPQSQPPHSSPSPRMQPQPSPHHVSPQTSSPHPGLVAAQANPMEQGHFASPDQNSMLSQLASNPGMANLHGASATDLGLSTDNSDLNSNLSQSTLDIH

## CNC(=O)N1CCc2c(c(N3CCCc4cc(-c5cnn(C)c5)c(C(F)F)cc43)nn2C2CCN(C(=O)CCCCCNc3cccc4c3C(=O)N(C3CCC(=O)NC3=O)C4=O)CC2)C1 (stereo not shown) [P-034, 3-(7-(difluoromethyl)-6-(1-methyl-1H-pyrazol-4-yl)-3,4-dihydroquinolin-1(2H)-yl)-1-(1-(6-((2-(2,6-dioxopiperidin-3-yl)-1,3-dioxoisoindolin-4-yl)amino)hexanoyl)piperidin-4-yl)-N-methyl-1,4,6,7-tetrahydro-5H-pyrazolo[4,3-c]pyridine-5-carboxamide]
[1]
  pIC50: 10.00
[2]
  pIC50: 9.70
[3]
  pIC50: 8.70
[4]
  pIC50: 9.05
[5]
  pIC50: 8.00
[6]
  pIC50: 8.16
[7]; LNCaP or 22RV1 cells, various concentrations (FIG. 7)
  P300 protein levels, dependence on interaction with cereblon: P300 degradation induced by P-034
[7]
  inhibition at 0.01 µM: > 80%
[8]
  pIC50: 7.18
[9]
  pIC50: 9.40
[10]
  pIC50: 9.15
[11]
  pIC50: 8.03
[12]
  pIC50: 7.82
[13]
  pIC50: 9.70
[14]
  pIC50: 6.85
[15]
  pIC50: 9.40
[16]
  P300 protein levels in 22RV1 xenograft tumors: significantly reducing
[17]
  pIC50: 8.15
[18]
  pIC50: 7.42

## CNC(=O)N1CCc2c(c(N3CCCc4cc(-c5cnn(C)c5)c(C(F)F)cc43)nn2C2CCN(C(=O)CCCCCCCNc3ccc4c(c3)C(=O)N(C3CCC(=O)NC3=O)C4=O)CC2)C1 (stereo not shown) [P-007, 3-(7-(difluoromethyl)-6-(1-methyl-1H-pyrazol-4-yl)-3,4-dihydroquinolin-1(2H)-yl)-1-(1-(8-((2-(2,6-dioxopiperidin-3-yl)-1,3-dioxoisoindolin-5-yl)amino)octanoyl)piperidin-4-yl)-N-methyl-1,4,6,7-tetrahydro-5H-pyrazolo[4,3-c]pyridine-5-carboxamide]
[1]
  pIC50: 9.52
[2]
  pIC50: 9.05
[3]
  pIC50: 8.55
[4]
  pIC50: 8.21
[5]
  pIC50: 8.26
[6]
  pIC50: 8.11
[7]
  inhibition at 0.01 µM: > 80%
[8]
  pIC50: 8.66
[9]
  pIC50: 9.40
[10]
  pIC50: 8.68
[11]
  pIC50: 8.43
[12]
  pIC50: 8.10
[13]
  pIC50: 9.15
[14]
  pIC50: 7.41
[15]
  pIC50: 8.52
[16]
  P300 protein levels in 22RV1 xenograft tumors: significantly reducing
[17]
  pIC50: 8.59
[18]
  pIC50: 7.79
